# Key:
# [1] = test system: macrophage-tropic HIV-1Ba-L strain; assay: Inhibition of macrophage-tropic HIV-1 Ba-L replication in de novo infected PM1 cells (p24 antigen); format: cell-based
# Description: (§1) HIV replication was measured either by p24 HIV Antigen Capture Assay Kit (ELISA; HIVAG-1 Monoclonal kit BIA011; Abbott) following the manufacturer's recommendation, or by using the Quantiplex HIV-1 RNA 3.0 Assay (bDNA) system (Chiron Diagnostics). The latter assay is a signal amplification nucleic acid probe assay (employing a sandwich nucleic acid hybridization procedure) for direct quantitation of HIV RNA in human plasma. There, in brief, HIV-1 is first concentrated from plasma by centrifugation. After release of genomic HIV-1 RNA from the virions, the RNA is captured to a microwell by a set of specific, synthetic oligonucleotide capture probes. A set of target probes hybridize to both the viral RNA and the pre-amplifier probes. The capture probes, comprised of 17 individual capture extenders, and the target probes, comprised of 81 individual target extenders, bind to different regions of the pol gene of the viral RNA. The amplifier probe hybridizes to the pre-amplifier forming a branched DNA (bDNA) complex. Then, multiple copies of an alkaline phosphatase labeled probe are hybridized to this immobilized bDNA complex. Detection is achieved by incubating the entire complex with a chemoluminescent substrate. Light emission is directly proportional to the amount of HIV-1 RNA present in each sample, and results are recorded as relative light units by an appropriate analyzer.
# (§2) Jurkat cells (species: human T-cell leukemia; special characteristics: cells are permissive for growth of T-cell tropic HIV strains; source:ATCC Cat.No. TIB 152) or PM1 cells (species: clonal derivative of human HUT 78 cells; special characteristics: cells are permissive for growth of macrophage-tropic and T-cell tropic HIV strains; source: Dr. Marvin Reitz, courtesy of the NIH AIDS Research and Reference Reagent Program Cat.No. 3038) were stimulated with Phytohemagglutinin (PHA-P, Product No. L9132 from Sigma) in a concentration of 2 μg/ml (1.5×10^6 cells/ml) and Hexadimethrine Bromide (Polybrene, Product No. H9268 from Sigma) in a concentration of 2 μg/ml (1.5×10^6 cells/ml) in RPMI 1640 medium containing 10% fetal calf serum (FCS, Pansystems GmbH) and antibiotics for 3 days.
# (§3) For HIV-1 infection, 5×10^7 cells were resuspended in 500 μl culture medium without test drugs and incubated in a 50 ml blue-cap-tube at 37° C. for 5 hrs with HIV-1 high titer viral stocks. Jurkat cells were infected with the T-cell tropic strain HIV-1 NL4-3, PM1 cells with the macrophage tropic strain HIV-1 Ba-L (both from the NIH AIDS Research and Reference Reagent Program). After infection, cells were washed twice with PBS without Ca^2+ and Mg^2+ to avoid false positive p24 antigen determination. Cells were resuspended, and identical aliquots (1×10^6/ml) of infected cells were further cultured in 10 ml medium with test drugs at various concentrations, or in medium with DMSO as control for calculation of the inhibition of virus replication (in %].
# (§4) Culture medium was changed and cells were split at days 3 and 7 of the experiments. Viability of the cells (Trypan-blue staining), cell counts and p24 antigen levels were determined at days 3, 7 and 10 of the experiments. No significant differences in cell viability were observed (˜85-90% living cells).
# (§5) At day 10 of infection, the HIV strains replicated vigorously in untreated cultures. Numbers describe percent inhibition of HIV replication as compared to control experiments.
# [2] = test system: T-cell-tropic HIV-1NL4/3 strain; assay: Inhibition of T-cell-tropic HIV-1 NL4/3 replication in de novo infected Jurkat cells (p24 antigen); format: cell-based
# Description: as §1, §2, §3, §4, §5
# [3] = test system: E. Coli XL-1 blue strain; assay: Growth assay for E. coli (optical density at 610 nm); format: cell-based; settings: LB medium, 37° C., one day; read-out: IC50 (μM) E. coli proliferation
# Description: We used the E. Coli XL-1 blue strain (Stratagene) for the investigation of antibacterial activity. During this experiments LB medium was used for E. coil growth. LB was prepared as follows: 1% trypton (weight/volume), 0.5% Yeast extract (weight/volume), and 1.5% NaCl (weight/volume) were dissolved in water and autoclaved. The media contained the inhibitor at 100 μM, 10 μM, or 1 μM concentrations, respectively.
# The assay was performed as follows: bacteria were seeded to 96-well plates containing the respective inhibitors. The bacteria-containing plates were incubated at 37° C. for one day. After incubation time, E. coli growth was assayed by the measurement of the optical density at 610 nm wavelength.
# [4] = biological target: T1, deoxyhypusine synthase (DHS) (Homo sapiens, UniProt P49366); assay: In vitro DHS screening assay (hypusine formation on eIF-5A); format: biochemical
# T1 construct: made in house; host or cells: E. coli BL21 (DE3), pGex vector
# T1 sequence (P49366 1-369): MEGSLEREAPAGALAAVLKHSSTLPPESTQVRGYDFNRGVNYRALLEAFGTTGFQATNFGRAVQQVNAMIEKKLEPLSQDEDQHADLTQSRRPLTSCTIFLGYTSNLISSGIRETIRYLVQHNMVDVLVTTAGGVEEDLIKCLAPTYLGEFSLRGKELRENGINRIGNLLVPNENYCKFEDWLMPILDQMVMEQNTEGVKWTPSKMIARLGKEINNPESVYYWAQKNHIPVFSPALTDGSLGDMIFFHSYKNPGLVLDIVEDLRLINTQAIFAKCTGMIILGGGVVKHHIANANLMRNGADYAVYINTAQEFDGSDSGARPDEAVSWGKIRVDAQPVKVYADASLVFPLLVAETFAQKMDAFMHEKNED
inhibition of the hypusine formation on the elF-5A protein [4],SMILES,"percent inhibition of HIV replication as compared to control ([1]; 1.0 μM, d7)","percent inhibition of HIV replication as compared to control ([1]; 1.0 μM, d10)","percent inhibition of HIV replication as compared to control ([1]; 5.0 μM, d7)","percent inhibition of HIV replication as compared to control ([1]; 5.0 μM, d10)","percent inhibition of HIV replication as compared to control ([2]; HIV-1 NL4/3, 1.0 μM, d7)","percent inhibition of HIV replication as compared to control ([2]; HIV-1 NL4/3, 1.0 μM, d10)","percent inhibition of HIV replication as compared to control ([2]; HIV-1 NL4/3, 5.0 μM, d7)","percent inhibition of HIV replication as compared to control ([2]; HIV-1 NL4/3, 5.0 μM, d10)",IC50 [3]
potent inhibitors,"C/C(=N\N=C(N)N)c1ccc(NC(=O)Nc2cc(/C(C)=N/N=C(N)N)cc(/C(C)=N/N=C(N)N)c2)cc1 [Compound 1, N-(4-acetylphenyl)-N′-(3,5-diacetylphenyl)urea tris (amidinohydrazone)]",23%,0%,72%,51%,15%,5%,52%,31%,< 0.1 µM
potent inhibitors,"CC(=NNC(=N)N)c1cc(NC(=O)CCC(=O)Nc2cc(C(C)=NNC(=N)N)cc(C(C)=NNC(=N)N)c2)cc(C(C)=NNC(=N)N)c1 [Compound 5, N,N′-bis (3,5-diacetylphenyl) butane diamide tetrakis (amidinohydrazone)]",48%,35%,97%,86%,26%,0%,70%,16%,< 0.1 µM
